Reference: patent US20140066389A1, “METHOD AND PHARMACEUTICAL TO TREAT SPINAL DISCS” (priority 2000, published 2014)

Tested on: spinal disc
Assay: Disc injections containing only one constituent
Assay type: in vivo
Conditions: injections with only one of glucosamine and chondroitin sulfate
Source text: Common to all formulations according to this invention is the inclusion, in an injectable tolerated by the spinal disc, of both glucosamine and chondroitin sulfate (in a buffered injectable solution).

Compound | value of the injection
N[C@H]1C(O)O[C@H](CO)[C@@H](O)[C@@H]1O (some centres unmarked) [glucosamine] | without value
chondroitin sulfate | without value
